Values after ≈ are worked out from the molar mass of the structure shown. Active and inactive are the calls of the source. The rule behind the calls is not given here.
Key:
[1] = Effective dose required for in vitro cytotoxic activity against TE-671 medulloblastoma tumor cells; type: functional; details: Homo sapiens, read-out: ED50 (the source's name)
[2] = Effective dose required for in vitro cytotoxic activity against RPMI-7951 melanoma tumor cells; type: functional; details: Homo sapiens, read-out: ED50 (the source's name)
A549 = assay: Dose required for in vitro cytotoxic activity against A-549 lung carcinoma cells at concentration of 10 ug/ml; NA is no cytotoxicity; type: functional, cell-based; details: Homo sapiens
HCT-8 = assay: Dose required for in vitro cytotoxic activity against HCT-8 colon carcinoma cells at concentration of 10 ug/ml; NA is no cytotoxicity; type: functional, cell-based; details: Homo sapiens

C=C(C=O)[C@H](C)[C@@H]1CCC23CC12CC[C@@H]1[C@@]2(C)CC[C@@H](OC(C)=O)C(C)(C)[C@@H]2C[C@@H](O[C@@H]2O[C@H](COC(C)=O)[C@@H](O)[C@H](O)[C@H]2O)[C@]13C (some centres undefined)
EC50 [1]: 2.74 µg/mL (≈ 4.15 µM)
EC50 [2]: 0.34 µg/mL (≈ 0.514 µM)
Activity (A549): inactive
Activity (HCT-8): inactive
